Entries after “also recorded” stand apart in the source; their conditions may differ. Read-outs that look alike come from different tables or passages of the source.
Key:
VSV New Jersey = assay: microbe, parasite or virus in culture; assay type: cell-based, Vesicular Stomatitis virus
[1] = test system: MV Rec. rMV^EZGFP(3) (Measles virus); assay: in vitro; settings: human
EBOV Rec. Mayinga-Gluc = assay: microbe, parasite or virus in culture; settings: Zaire ebolavirus, Huh-7
[2] = test system: EBOV Makona (Ebola virus); assay: in vitro; settings: human
[3] = test system: RSV Rec. rgRSV224 (A2) (respiratory syncytial virus); assay: in vitro; settings: human
DenV = settings: cited from earlier work
EBOV Makona = assay: microbe, parasite or virus in culture; settings: Zaire ebolavirus
MV Rec. rMV^EZGFP(3) [4] = assay: microbe, parasite or virus in culture; settings: Measles morbillivirus, HeLa
RVFV Rec. ZH501-GFP = assay: microbe, parasite or virus in culture; assay type: cell-based, Rift Valley Fever virus
[5] = test system: NiV Rec. M-Luc2AM (Nipah virus); assay: in vitro; settings: human
[6] = test system: EBOV Rec. Mayinga-Gluc (Ebola virus); assay: in vitro; settings: human
[7] = test system: MARV Rec. Bat371-GFP (Marburg virus); assay: in vitro; settings: human
[8] = test system: EBOV Rec. Makona-ZSG (Ebola virus); assay: in vitro; settings: human
EBOV Rec. Mayinga-GFP = assay: microbe, parasite or virus in culture; settings: Zaire ebolavirus, Huh-7
RSV Rec. rgRSV224 (A2) = assay: microbe, parasite or virus in culture; settings: human respiratory syncytial virus, HeLa
NiV M-1999 (Nipah virus) = assay: in vitro; settings: human
LASV Josiah = assay: microbe, parasite or virus in culture; settings: Mammarenavirus lassaense, Huh-7
NiV Rec. M-GFP2AM [9] = test system: NiV Rec. M-GFP2AM
CCHF Rec. IbAr 10200 = assay: organism not typed; assay type: cell-based, Crimean Congo Hemorrhagic Fever virus
[10] = Cell viability assay (CellTiter-Glo 2.0), Huh7; settings: human, uninfected Huh7 cells
[11] = test system: EBOV Rec. Mayinga-GFP (Ebola virus); assay: in vitro; settings: human
NiV Rec. M-GFP2AM [12] = assay: microbe, parasite or virus in culture; settings: Henipavirus nipahense, HeLa
hPIV3 Rec. JS-GFP [13] = test system: hPIV3 Rec. JS-GFP
EBOV Rec. Makona-ZSG [14] = assay: microbe, parasite or virus in culture; settings: Zaire ebolavirus, Huh-7
NiV Rec. M-Luc2AM [15] = assay: microbe, parasite or virus in culture; settings: Henipavirus nipahense, HeLa
EBOV Rec. Makona-ZSG [16] = test system: EBOV Rec. Makona-ZSG
[17] = test system: hPIV3 Rec. JS-GFP (parainfluenza type 3 virus); assay: in vitro; settings: human
NiV B-2004 = assay: microbe, parasite or virus in culture; settings: Henipavirus nipahense
KFDV P9605 = assay: microbe, parasite or virus in culture; settings: Kyasanur Forest disease virus, A549
[18] = test system: NiV Rec. M-GFP2AM (Nipah virus); assay: in vitro; settings: human
[19] = test system: MuV IA 2006 (Mumps virus); assay: in vitro; settings: human
TBEV Hypr = assay: microbe, parasite or virus in culture; settings: Tick-borne encephalitis virus, A549
HCV = settings: cited from earlier work
NiV Rec. M-Luc2AM [20] = test system: NiV Rec. M-Luc2AM
MV Rec. rMV^EZGFP(3) [21] = test system: MV Rec. rMV^EZGFP(3)
OHFV Bogoluvovska = assay: microbe, parasite or virus in culture; settings: Omsk hemorrhagic fever virus, A549
MuV IA 2006 = assay: microbe, parasite or virus in culture; settings: Mumps orthorubulavirus, HeLa
hPIV3 Rec. JS-GFP [22] = assay: microbe, parasite or virus in culture; settings: Human respirovirus 3, HeLa
[23] = Vesicular stomatitis virus, HeLa
[24] = not tested in this paper, no reference given

SMILES: CCC(CC)COC(=O)[C@H](C)N[P@](=O)(OC[C@H]1O[C@@](C#N)(c2ccc3c(N)ncnn23)[C@H](O)[C@@H]1O)Oc1ccccc1 [GS-5734]
- EC50 (VSV New Jersey): not inhibited; also recorded: No inhibition
- EC50 (VSV New Jersey; [23]): > 10000 nM
- selectivity ratio [1]: 224
- EC50 (EBOV Rec. Mayinga-Gluc): 20.7 nM
- EC90 (EBOV Rec. Mayinga-Gluc): 53 nM
- selectivity ratio [2]: 666
- selectivity ratio [3]: 395
- inhibition of virus (DenV; [24]): inhibited
- EC50 (EBOV Makona; Macrophage): 3.4 nM
- EC90 (EBOV Makona; Macrophage): 19 nM
- EC50 (MV Rec. rMV^EZGFP(3) [4]): 36.5 ± 28 nM
- EC90 (MV Rec. rMV^EZGFP(3) [4]): 73 nM
- EC50 (RVFV Rec. ZH501-GFP): minimal to no antiviral activity; also recorded: No inhibition
- EC50 (RVFV Rec. ZH501-GFP; Rift Valley fever virus, Huh-7): > 10000 nM
- selectivity ratio [5]: 184
- selectivity ratio [6]: 476
- selectivity ratio [7]: 714
- selectivity ratio [8]: 714
- EC50 (EBOV Rec. Mayinga-GFP): 66 nM
- EC90 (EBOV Rec. Mayinga-GFP): 203 nM
- EC50 (MARV Rec. Bat371-GFP): 14 nM
- reduction in virus yield (NiV M-1999): greater than 4
- EC50 (RSV Rec. rgRSV224 (A2)): 21.1 ± 1.1 nM
- EC90 (RSV Rec. rgRSV224 (A2)): 59 nM
- selectivity ratio (NiV M-1999 (Nipah virus)): 180
- EC50 (LASV Josiah): 4490 ± 480 nM
- EC90 (LASV Josiah): 5100 nM
- EC50 (NiV Rec. M-GFP2AM [9]): 29 nM
- EC50 (CCHF Rec. IbAr 10200): minimal to no antiviral activity; also recorded: No inhibition
- EC50 (CCHF Rec. IbAr 10200; Huh-7): > 10000 nM
- CC50 at 72 h [10]: > 10000 nM
- selectivity ratio [11]: 151
- EC50 (NiV Rec. M-GFP2AM [12]): 28.7 nM
- EC90 (NiV Rec. M-GFP2AM [12]): 53 nM
- EC50 (hPIV3 Rec. JS-GFP [13]): 18 nM
- EC50 (EBOV Rec. Makona-ZSG [14]): 13.6 ± 1 nM
- EC90 (EBOV Rec. Makona-ZSG [14]): 45 nM
- EC50 (NiV Rec. M-Luc2AM [15]): 44.9 ± 1.8 nM
- EC90 (NiV Rec. M-Luc2AM [15]): 126 nM
- EC50 (EBOV Rec. Makona-ZSG [16]): 14 nM
- selectivity ratio [17]: 461
- EC50 (NiV B-2004): 32.4 ± 2.7 nM
- EC90 (NiV B-2004): 106 nM
- EC90 (KFDV P9605): 3400 nM
- selectivity ratio [18]: 286
- selectivity ratio [19]: 10
- EC90 (TBEV Hypr): 3500 nM
- inhibition of virus (HCV; [24]): inhibited
- EC50 (NiV Rec. M-Luc2AM [20]): 45 nM
- EC50 (MV Rec. rMV^EZGFP(3) [21]): 37 nM
- EC90 (OHFV Bogoluvovska): 3900 nM
- EC50 (MuV IA 2006): 790 nM
- EC90 (MuV IA 2006): 3400 nM
- EC50 (hPIV3 Rec. JS-GFP [22]): 17.7 ± 3.7 nM
- EC90 (hPIV3 Rec. JS-GFP [22]): 350 nM

SMILES: N#C[C@@]1(c2ccc3c(N)ncnn23)O[C@H](CO)[C@@H](O)[C@H]1O [Nuc]
- EC50 (VSV New Jersey): little to no antiviral activity; also recorded: No inhibition
- EC50 (VSV New Jersey; [23]): > 50000 nM
- selectivity ratio [1]: 50
- EC50 (EBOV Rec. Mayinga-Gluc): 3100 nM
- EC90 (EBOV Rec. Mayinga-Gluc): 11000 nM
- selectivity ratio [2]: 50
- selectivity ratio [3]: 79
- antiviral activity (active or not) (DenV): active
- antiviral activity (active or not) (DenV; listed as GS-441524): shown to have activity
- EC50 (EBOV Makona; Huh-7): 1020 nM
- EC90 (EBOV Makona; Huh-7): 2500 nM
- EC50 (MV Rec. rMV^EZGFP(3) [4]): 990 ± 360 nM
- EC90 (MV Rec. rMV^EZGFP(3) [4]): 2600 nM
- EC50 (RVFV Rec. ZH501-GFP): little to no antiviral activity; also recorded: No inhibition
- EC50 (RVFV Rec. ZH501-GFP; Rift Valley fever virus, Huh-7): > 50000 nM
- selectivity ratio [5]: 33
- selectivity ratio [6]: 16
- selectivity ratio [7]: 26
- selectivity ratio [8]: 38
- EC50 (EBOV Rec. Mayinga-GFP): 1610 ± 120 nM
- EC90 (EBOV Rec. Mayinga-GFP): 6700 nM
- EC50 (MARV Rec. Bat371-GFP): 1900 nM
- reduction in virus yield (NiV M-1999): greater than 5
- EC50 (RSV Rec. rgRSV224 (A2)): 630 nM
- EC90 (RSV Rec. rgRSV224 (A2)): 2200 nM
- selectivity ratio (NiV M-1999 (Nipah virus)): 102
- EC50 (LASV Josiah): > 50000 nM
- EC50 (NiV Rec. M-GFP2AM [9]): 2200 nM
- EC50 (CCHF Rec. IbAr 10200): little to no antiviral activity; also recorded: No inhibition
- EC50 (CCHF Rec. IbAr 10200; Huh-7): > 50000 nM
- CC50 at 72 h [10]: > 50000 nM
- selectivity ratio [11]: 31
- EC50 (NiV Rec. M-GFP2AM [12]): 2230 ± 1400 nM
- EC90 (NiV Rec. M-GFP2AM [12]): 4000 nM
- EC50 (hPIV3 Rec. JS-GFP [13]): 510 nM
- EC50 (EBOV Rec. Makona-ZSG [14]): 1280 ± 140 nM
- EC90 (EBOV Rec. Makona-ZSG [14]): 3300 nM
- EC50 (NiV Rec. M-Luc2AM [15]): 1570 ± 780 nM
- EC90 (NiV Rec. M-Luc2AM [15]): 5700 nM
- EC50 (EBOV Rec. Makona-ZSG [16]): 1300 nM
- selectivity ratio [17]: 98
- EC50 (NiV B-2004): 2460 nM
- EC50 (KFDV P9605): 46300 nM
- EC90 (KFDV P9605): > 350000 nM
- selectivity ratio [18]: 22
- selectivity ratio [19]: 5
- EC50 (TBEV Hypr): 51200 nM
- EC90 (TBEV Hypr): > 150000 nM
- antiviral activity (active or not) (HCV): active
- antiviral activity (active or not) (HCV; listed as GS-441524): shown to have activity
- EC50 (NiV Rec. M-Luc2AM [20]): 1500 nM
- EC50 (MV Rec. rMV^EZGFP(3) [21]): 1000 nM
- EC50 (OHFV Bogoluvovska): 50600 nM
- EC90 (OHFV Bogoluvovska): > 350000 nM
- EC50 (MuV IA 2006): 7000 to 12000 nM
- EC90 (MuV IA 2006): 26300 nM
- EC50 (hPIV3 Rec. JS-GFP [22]): 520 ± 80 nM
- EC90 (hPIV3 Rec. JS-GFP [22]): 1000 nM

Reference: PMC5338263, “GS-5734 and its parent nucleoside analog inhibit Filo-, Pneumo-, and Paramyxoviruses” (Scientific Reports, 2017)
